{
  "source": "paper PMC6158019",
  "about": "(Cancer cell, 2018)",
  "key": {"[1]": {"test_system": "RMS cell lines and primary cultures of O-PDX cells", "assay": "General drug screening", "assay_type": "cell-based, human", "conditions": "for in vitro activity in RMS O-PDX drug screening: primary cultures of RMS O-PDXs and cell lines"}, "[2]": {"test_system": "RMS cell lines (RD cells)", "assay": "Cell cycle", "assay_type": "cell-based, human", "conditions": "1 μM AZD1775, 24 or 48 hr"}, "[3]": {"test_system": "RMS orthotopic xenografts SJRHB000026_X1, SJRHB012_Y, SJRHB013757_X2, SJRHB013759_X1", "assay_type": "in vivo, mouse", "conditions": "single-agent groups"}, "[4]": {"assay": "Trametinib human plasma PK", "assay_type": "in vivo", "conditions": "patients, standard calculations"}, "in vivo [5]": {"assay": "in vivo", "conditions": "female, athymic nude, mouse, po, 0.1 mg/kg"}, "[6]": {"conditions": "cited from earlier work; for mean plasma CL/F: population PK"}, "[7]": {"assay": "Ganetespib plasma and tumor PK in tumor-bearing mice", "assay_type": "in vivo, mouse", "conditions": "for half-life: female, athymic nude, mouse, iv, 150 mg/kg"}, "[8]": {"conditions": "ref Goldman et al., 2013, cited from earlier work"}, "[9]": {"conditions": "species not stated; cited from earlier work"}, "[10]": {"assay": "Preclinical phase 1 tolerability study", "conditions": "GSP 10 mg/kg, AZD1775 60 mg/kg twice daily, in combination regimens"}, "RMS O-PDXs": {"test_system": "RMS O-PDXs", "conditions": "previous preclinical phase 2 studies; ref Stewart et al., 2017; cited from earlier work"}, "in vivo [11]": {"assay": "in vivo", "conditions": "female, athymic nude"}, "[12]": {"assay": "Palbociclib human plasma PK", "assay_type": "in vivo", "conditions": "patients, 125 mg PO QD, standard calculations"}, "[13]": {"conditions": "mice, ref Parrish et al., 2015; cited from earlier work"}, "[14]": {"conditions": "ref palbociclib FDA NDA reviews, cited from earlier work"}, "[15]": {"conditions": "mouse, in vivo"}, "[16]": {"conditions": "abemaciclib, mice; ref Raub et al., 2015; cited from earlier work"}, "[17]": {"conditions": "ref Patnaik et al., 2016, cited from earlier work"}, "[18]": {"assay": "Abemaciclib plasma and tumor PK in tumor-bearing mice", "conditions": "female, athymic nude, mouse, po, 50 mg/kg"}},
  "note": "Like-named read-outs stand apart in the source and are kept apart here.",
  "data": [
    {"compound": "C=CCn1c(=O)c2cnc(Nc3ccc(N4CCN(C)CC4)cc3)nc2n1-c1cccc(C(C)(C)O)n1", "note": "[AZD1775]", "values": [
      {"measurement": "in vitro activity in RMS O-PDX drug screening", "setting": "[1]", "result": "significant in vitro activity"},
      {"measurement": "cell cycle and nuclear effects", "setting": "[2]", "result": "G2/M phase arrest, mitotic catastrophe, and nuclear fragmentation"},
      {"measurement": "overall survival compared with placebo", "setting": "[3]", "result": "not different from placebo"}
    ]},
    {"compound": "CC(=O)Nc1cccc(-n2c(=O)n(C3CC3)c(=O)c3c(Nc4ccc(I)cc4F)n(C)c(=O)c(C)c32)c1", "note": "[trametinib]", "values": [
      {"measurement": "estimated total plasma Cavg,ss", "setting": "[4]", "result": "about 15.1 ng/mL"},
      {"measurement": "Kp", "setting": "in vivo [5]", "result": 5.49},
      {"measurement": "mean AUC", "setting": "[6]; across genders, 2 mg PO QD, ref Ouellet et al., 2016", "result": 365, "unit": "ng·h/mL"},
      {"measurement": "maximum tolerated dose (MTD)", "setting": "[6]; putative single agent", "result": 2, "unit": "mg PO QD"},
      {"measurement": "mean plasma CL/F", "setting": "[6]; typical female patient, ref Ouellet et al., 2016", "result": 4.91, "unit": "L/h"},
      {"measurement": "mean plasma CL/F", "setting": "[6]; typical male patient, ref Ouellet et al., 2016", "result": 6.19, "unit": "L/h"}
    ]},
    {"compound": "CC(C)c1cc(-c2n[nH]c(=O)n2-c2ccc3c(ccn3C)c2)c(O)cc1O", "note": "[ganetespib]", "values": [
      {"measurement": "sensitivity of RMS cells relative to other pediatric solid tumors", "setting": "[1]; RMS cell lines and primary cultures of O-PDX cells", "result": "more sensitive"},
      {"measurement": "in vitro activity in RMS O-PDX drug screening", "setting": "[1]", "result": "significant in vitro activity"},
      {"measurement": "overall survival compared with placebo", "setting": "[3]", "result": "not different from placebo"},
      {"measurement": "increase in plasma Cmax for a 3-fold increase in dose", "setting": "[7]; 50 to 150 mg/kg IV, 10 min after injection, data not shown", "result": "~17", "unit": "fold"},
      {"measurement": "half-life", "setting": "[7]; plasma", "result": 2.03, "unit": "h"},
      {"measurement": "half-life", "setting": "[7]; tumor", "result": 8.42, "unit": "h"},
      {"measurement": "murine equivalent dose (MED) providing a similar total plasma AUCinf", "setting": "[7]; vs human 200 mg/m^2", "result": 12.8, "unit": "mg/kg"},
      {"measurement": "recommended Phase 2 dose (RP2D)", "setting": "[8]; IV once weekly for 3 weeks of a 4-week cycle", "result": 200, "unit": "mg/m^2"},
      {"measurement": "estimated human total plasma AUCinf", "setting": "[8]; at 200 mg/m^2", "result": "approximately 7000 hr-ng/mL"},
      {"measurement": "major adverse events", "setting": "[8]; patients", "result": "diarrhea and fatigue"},
      {"measurement": "plasma protein binding", "setting": "[9]", "result": "high"},
      {"measurement": "tolerability", "setting": "[10]", "result": "well tolerated in all groups"}
    ]},
    {"compound": "CC(C)C[C@H](NC(=O)[C@H](Cc1ccccc1)NC(=O)c1cnccn1)B(O)O", "note": "[bortezomib]", "values": [
      {"measurement": "efficacy in vivo", "setting": "RMS O-PDXs", "result": "failed to show efficacy in vivo"}
    ]},
    {"compound": "CC(=O)c1c(C)c2cnc(Nc3ccc(N4CCNCC4)cn3)nc2n(C2CCCC2)c1=O", "note": "[palbociclib]", "values": [
      {"measurement": "back-estimated mouse plasma Cavg", "setting": "in vivo [11]; 10 mg/kg", "result": 76.9, "unit": "ng/mL"},
      {"measurement": "murine equivalent dose (MED)", "setting": "in vivo [11]; mouse", "result": 10, "unit": "mg/kg"},
      {"measurement": "CL/F", "setting": "in vivo [11]; mouse, po, 16 mg/kg", "result": 91.2, "unit": "mL/min/kg"},
      {"measurement": "Kp", "setting": "in vivo [11]; mouse, po, 16 mg/kg", "result": "~6"},
      {"measurement": "half-life", "setting": "in vivo [11]; mouse, po, 16 mg/kg", "result": 2.61, "unit": "h"},
      {"measurement": "estimated total plasma Cavg,ss", "setting": "[12]", "result": "about 85 ng/mL"},
      {"measurement": "apparent terminal half-life (T1/2), literature", "setting": "[13]", "result": "approximately 3.4 hr"},
      {"measurement": "estimated total plasma AUCtau at steady state", "setting": "[14]; patients, 125 mg PO QD", "result": 2080, "unit": "ng·h/mL"},
      {"measurement": "mean plasma CL/F", "setting": "[14]; typical patient, population PK", "result": 60.2, "unit": "L/h"}
    ]},
    {"compound": "CCN1CCN(Cc2ccc(Nc3ncc(F)c(-c4cc(F)c5nc(C)n(C(C)C)c5c4)n3)nc2)CC1", "note": "[abemaciclib]", "values": [
      {"measurement": "rounded and recommended MED", "setting": "[15]; female, athymic nude", "result": "7.5-15 mg/kg PO BID"},
      {"measurement": "plasma AUC lower than that reported by Tate", "setting": "[15]; female, athymic nude, po, 50 mg/kg", "result": "~ 3.8 fold"},
      {"measurement": "murine equivalent dose (MED) providing a similar total plasma AUC", "setting": "[15]", "result": 14.4, "unit": "mg/kg"},
      {"measurement": "mean in vitro fraction unbound in the plasma (Fu,p)", "setting": "[16]", "result": 0.054},
      {"measurement": "geometric mean total plasma AUCtau at steady state", "setting": "[17]; 200 mg PO BID", "result": 3000, "unit": "ng·h/mL"},
      {"measurement": "geometric mean trough concentration", "setting": "[17]; 200 mg PO BID", "result": 197, "unit": "ng/mL"},
      {"measurement": "maximum tolerated dose (MTD)", "setting": "[17]; Phase 1, single agent, continuous", "result": 200, "unit": "mg PO BID"},
      {"measurement": "half-life", "setting": "[18]; plasma", "result": 5.2, "unit": "h"},
      {"measurement": "half-life", "setting": "[18]; tumor", "result": 5.98, "unit": "h"}
    ]},
    {"compound": "Cc1[nH]c2ccccc2c1CCNCc1ccc(/C=C/C(=O)NO)cc1", "note": "[panobinostat]", "values": [
      {"measurement": "efficacy in vivo", "setting": "RMS O-PDXs", "result": "failed to show efficacy in vivo"}
    ]}
  ]
}
